Laboratory results reported in US20150005262A1, “HYPOXIA ACTIVATED PRODRUGS AND MTOR INHIBITORS FOR TREATING CANCER” (THRESHOLD PHARMACEUTICALS, INC., priority 2011, published 2015).
Entries after “also recorded” stand apart in the source; their conditions may differ.

Experiments:
mTOR = mTOR (Homo sapiens, UniProt P42345); conditions: cited from earlier work
PI3K = conditions: read-out: IC50 for PI3-K; cited from earlier work
DNA-PK = DNA-PK (Homo sapiens, UniProt P78527); conditions: cited from earlier work
Chain of DNA-PK (P78527 whole entry): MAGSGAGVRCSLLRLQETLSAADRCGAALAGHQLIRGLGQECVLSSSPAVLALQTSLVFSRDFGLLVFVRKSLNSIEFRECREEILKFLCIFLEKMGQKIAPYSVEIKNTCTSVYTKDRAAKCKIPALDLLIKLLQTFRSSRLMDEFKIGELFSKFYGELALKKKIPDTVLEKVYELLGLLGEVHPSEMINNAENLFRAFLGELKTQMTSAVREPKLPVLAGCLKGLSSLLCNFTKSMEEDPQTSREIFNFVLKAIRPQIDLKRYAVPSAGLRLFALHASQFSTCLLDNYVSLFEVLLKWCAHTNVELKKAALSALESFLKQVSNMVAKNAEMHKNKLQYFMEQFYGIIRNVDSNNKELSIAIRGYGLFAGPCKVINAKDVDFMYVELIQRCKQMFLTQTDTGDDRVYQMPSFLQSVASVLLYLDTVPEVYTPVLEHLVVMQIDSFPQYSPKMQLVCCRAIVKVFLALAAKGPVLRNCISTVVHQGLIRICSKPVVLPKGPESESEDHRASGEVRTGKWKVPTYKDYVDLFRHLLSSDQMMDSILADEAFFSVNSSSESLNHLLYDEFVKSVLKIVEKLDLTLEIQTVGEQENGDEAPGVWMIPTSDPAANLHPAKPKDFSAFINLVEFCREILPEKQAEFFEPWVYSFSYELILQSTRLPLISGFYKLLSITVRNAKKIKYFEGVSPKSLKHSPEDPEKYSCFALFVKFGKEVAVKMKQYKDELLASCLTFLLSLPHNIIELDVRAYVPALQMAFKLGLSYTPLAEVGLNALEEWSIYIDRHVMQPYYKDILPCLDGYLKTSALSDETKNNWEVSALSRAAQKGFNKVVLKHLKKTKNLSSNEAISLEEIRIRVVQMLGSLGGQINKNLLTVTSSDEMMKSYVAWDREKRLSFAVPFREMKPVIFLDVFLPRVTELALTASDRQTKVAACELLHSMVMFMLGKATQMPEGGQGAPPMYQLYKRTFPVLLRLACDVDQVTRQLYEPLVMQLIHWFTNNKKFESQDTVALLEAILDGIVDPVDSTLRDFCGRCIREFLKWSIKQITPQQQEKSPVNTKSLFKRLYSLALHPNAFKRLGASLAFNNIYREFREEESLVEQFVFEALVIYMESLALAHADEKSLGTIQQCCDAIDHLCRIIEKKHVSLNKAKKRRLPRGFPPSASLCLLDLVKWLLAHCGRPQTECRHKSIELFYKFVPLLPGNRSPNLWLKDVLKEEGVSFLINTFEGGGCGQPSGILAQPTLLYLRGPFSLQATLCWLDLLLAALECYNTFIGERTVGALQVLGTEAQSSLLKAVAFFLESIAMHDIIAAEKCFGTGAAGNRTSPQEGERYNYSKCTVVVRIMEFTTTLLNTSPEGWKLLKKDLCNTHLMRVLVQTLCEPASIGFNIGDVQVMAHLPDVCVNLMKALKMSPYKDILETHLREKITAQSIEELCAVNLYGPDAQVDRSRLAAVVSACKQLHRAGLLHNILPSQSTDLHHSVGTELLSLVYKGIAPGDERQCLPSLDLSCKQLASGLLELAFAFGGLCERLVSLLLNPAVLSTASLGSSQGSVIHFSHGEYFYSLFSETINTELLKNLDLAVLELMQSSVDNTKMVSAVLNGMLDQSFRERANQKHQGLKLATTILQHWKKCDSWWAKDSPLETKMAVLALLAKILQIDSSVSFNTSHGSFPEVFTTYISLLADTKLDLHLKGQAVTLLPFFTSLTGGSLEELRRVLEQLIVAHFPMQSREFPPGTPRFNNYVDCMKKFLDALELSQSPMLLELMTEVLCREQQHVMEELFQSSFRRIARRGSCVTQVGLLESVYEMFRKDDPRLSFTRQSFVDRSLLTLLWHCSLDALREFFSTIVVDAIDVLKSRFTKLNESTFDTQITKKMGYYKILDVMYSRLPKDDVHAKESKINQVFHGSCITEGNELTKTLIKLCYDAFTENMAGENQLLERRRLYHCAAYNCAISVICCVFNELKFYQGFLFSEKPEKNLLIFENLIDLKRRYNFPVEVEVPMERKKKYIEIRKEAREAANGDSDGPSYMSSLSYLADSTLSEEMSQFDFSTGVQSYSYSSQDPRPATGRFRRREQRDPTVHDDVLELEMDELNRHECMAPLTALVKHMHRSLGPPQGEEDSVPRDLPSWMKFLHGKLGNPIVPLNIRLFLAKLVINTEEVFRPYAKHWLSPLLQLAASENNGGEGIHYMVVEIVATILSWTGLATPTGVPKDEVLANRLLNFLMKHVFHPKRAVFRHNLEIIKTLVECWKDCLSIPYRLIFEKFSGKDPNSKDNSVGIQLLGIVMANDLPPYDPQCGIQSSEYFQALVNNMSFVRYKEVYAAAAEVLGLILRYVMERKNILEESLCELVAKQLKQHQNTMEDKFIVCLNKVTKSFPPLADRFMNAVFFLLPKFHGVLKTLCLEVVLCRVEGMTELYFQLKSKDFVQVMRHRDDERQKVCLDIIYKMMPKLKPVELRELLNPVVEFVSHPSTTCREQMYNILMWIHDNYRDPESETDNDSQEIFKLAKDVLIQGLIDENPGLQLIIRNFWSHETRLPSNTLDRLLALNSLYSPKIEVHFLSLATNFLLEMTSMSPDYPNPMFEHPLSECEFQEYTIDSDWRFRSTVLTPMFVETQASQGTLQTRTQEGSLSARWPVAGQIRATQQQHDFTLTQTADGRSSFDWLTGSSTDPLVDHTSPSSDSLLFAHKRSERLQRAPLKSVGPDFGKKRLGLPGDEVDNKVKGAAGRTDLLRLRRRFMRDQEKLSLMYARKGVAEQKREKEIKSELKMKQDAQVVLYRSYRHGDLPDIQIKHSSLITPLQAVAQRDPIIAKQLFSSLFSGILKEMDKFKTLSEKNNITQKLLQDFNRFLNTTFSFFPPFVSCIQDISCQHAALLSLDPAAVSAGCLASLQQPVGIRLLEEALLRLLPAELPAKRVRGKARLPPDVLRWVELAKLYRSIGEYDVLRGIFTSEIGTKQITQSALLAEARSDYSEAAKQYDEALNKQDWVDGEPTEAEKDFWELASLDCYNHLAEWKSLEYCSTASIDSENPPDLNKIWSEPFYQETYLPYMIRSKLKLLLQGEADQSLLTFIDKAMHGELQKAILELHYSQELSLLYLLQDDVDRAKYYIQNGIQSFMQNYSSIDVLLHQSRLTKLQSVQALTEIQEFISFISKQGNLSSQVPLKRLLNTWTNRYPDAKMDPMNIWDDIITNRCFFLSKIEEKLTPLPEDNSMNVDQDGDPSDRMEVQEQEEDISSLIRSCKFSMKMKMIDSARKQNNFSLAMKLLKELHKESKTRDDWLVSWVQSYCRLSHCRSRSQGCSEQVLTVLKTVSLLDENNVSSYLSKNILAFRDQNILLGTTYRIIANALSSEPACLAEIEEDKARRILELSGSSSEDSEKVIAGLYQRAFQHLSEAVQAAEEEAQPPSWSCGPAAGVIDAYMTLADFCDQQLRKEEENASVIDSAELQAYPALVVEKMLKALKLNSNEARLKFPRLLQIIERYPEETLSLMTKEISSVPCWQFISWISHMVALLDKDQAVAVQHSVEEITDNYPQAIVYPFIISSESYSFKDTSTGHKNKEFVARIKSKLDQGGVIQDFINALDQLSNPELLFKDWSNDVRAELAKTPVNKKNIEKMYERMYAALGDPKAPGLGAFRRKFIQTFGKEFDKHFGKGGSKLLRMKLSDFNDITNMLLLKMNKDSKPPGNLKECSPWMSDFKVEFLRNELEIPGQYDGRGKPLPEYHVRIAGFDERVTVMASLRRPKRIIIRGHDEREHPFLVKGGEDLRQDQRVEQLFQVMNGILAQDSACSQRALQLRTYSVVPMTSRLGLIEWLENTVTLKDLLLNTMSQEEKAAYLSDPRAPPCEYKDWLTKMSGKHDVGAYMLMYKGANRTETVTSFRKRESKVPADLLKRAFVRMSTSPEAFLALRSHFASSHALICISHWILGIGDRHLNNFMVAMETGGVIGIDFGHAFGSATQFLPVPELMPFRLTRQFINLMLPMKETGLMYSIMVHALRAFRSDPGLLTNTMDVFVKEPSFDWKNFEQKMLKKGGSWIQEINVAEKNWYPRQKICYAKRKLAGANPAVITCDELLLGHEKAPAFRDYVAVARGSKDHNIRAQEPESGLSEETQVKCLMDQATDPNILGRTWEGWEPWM

NCI-60 cell lines panel = conditions: cited from earlier work
786-0 cells [1] = experiment: 786-0 RCC ectopic xenograft, TH-302 with everolimus; type: in vivo, nude mice; conditions: 786-0 model; everolimus 5 mg/kg QD×19 p.o.; TH-302 50 mg/kg QD×5/week×3 weeks i.p.; both started day 1
Caki-1 cells [2] = experiment: Caki-1 RCC ectopic xenograft, TH-302 with temsirolimus; type: in vivo, nude mice; conditions: Caki-1 model, temsirolimus 20 mg/kg QD×19 i.p.
From the text: (§1) In one combination therapy group, the temsirolimus and TH-302 administration both began on day 1; in the other combination therapy group, the TH-302 administration was initiated on day 8 after the first temsirolimus administration. Thus, two TH-302 monotherapy groups served as comparison groups (one group starting on day 1 and the other starting on day 8). […] The weight returned to normal when treatment stopped.

SK-N-BE(2) cells = experiment: SK-N-BE(2) ectopic neuroblastoma model, TH-302 with everolimus; type: in vivo; conditions: SK-N-BE(2) model; everolimus 5 mg/kg QD×19 oral; TH-302 50 mg/kg QD×5/week×3 weeks i.p.
Caki-1 cells [3] = experiment: Caki-1 RCC ectopic xenograft, TH-302 with everolimus; type: in vivo, nude mice; conditions: Caki-1 model; everolimus 5 mg/kg QD×19 p.o.; TH-302 50 mg/kg QD×5/week×3 weeks i.p.; both started day 1
[4] = test system: 786-0 RCC xenograft tumors; experiment: Tumor hypoxia (pimonidazole, morphometric analysis) in 786-0 xenograft; type: in vivo, nude mice; conditions: for tumor hypoxic fraction: everolimus 5 mg/kg oral QD×8, TH-302 150 mg/kg i.p., sampled 72 hr after TH-302
[5] = test system: Caki-1 RCC xenograft tumors; experiment: Tumor hypoxia (pimonidazole, morphometric analysis) in Caki-1 xenograft; type: in vivo, nude mice; conditions: for tumor hypoxic fraction: temsirolimus 20 mg/kg i.p. QD×8, TH-302 150 mg/kg i.p., sampled 72 hr after TH-302; for change of tumor hypoxia (in words): vs vehicle, combination vs mTOR inhibitor alone
Experimental: Nude mice bearing 786-0 or Caki-1 RCC xenograft tumors were randomized into 4 groups (6-8 mice/group): vehicle, mTOR inhibitor, TH-302 monotherapy, and TH-302 in combination with mTOR inhibitor, respectively. In the mTOR inhibitor monotherapy group, animals were dosed with a QD×8 regimen, and tumors were sampled 4 hr after the last treatment. In the TH-302 monotherapy group, 150 mg/kg was administered intraperitoneally to the animals, and the tumors were sampled 72 hr after the TH-302 treatment. In the combination therapy group, TH-302 was administered 4 hr after the last dose of mTOR inhibitor (QD×8, oral), and the tumors were sampled 72 hr later. Pimonidazole was administered 1 hr before euthanization (tumors were sampled on euthanization).
A dose of 20 mg/kg of temsirolimus was administered intraperitoneally in the Caki-1 xenograft model. […] After temsirolimus treatment, the tumor hypoxic fraction was 12.8±0.7%, as compared to 7.5±1.9% in vehicle treated group (p<0.05). The tumor hypoxic fraction in the TH-302 monotherapy group was 4.3±0.7%.

Ki67, CD31, p-S6 = experiment: Pharmacodynamic study using immunohistochemistry of tumor tissue; type: in vivo, nude mice; conditions: after 7 days treatment of everolimus
786-0 cells [6] = experiment: 786-0 RCC ectopic xenograft, TH-302 with temsirolimus; type: in vivo, nude mice; conditions: 786-0 model; temsirolimus 20 mg/kg QD×19 i.p.; TH-302 50 mg/kg QD×5/week×2 to 3 weeks i.p.; combination range covers day 1 and day 8 schedules
From the text: as §1

O=c1cc(N2CCOCC2)oc2c(-c3cccc4c3sc3ccccc34)cccc12 [NU7441]
IC50 (mTOR): 1700 nM | IC50 (PI3K): 5000 nM | IC50 (DNA-PK): 10 nM

COc1ccc(COc2cc3oc(=O)c4cc(C(C)O)ccc4c3cc2OC)cc1 (stereo not drawn) [Palomid 529]
GI50 (NCI-60 cell lines panel): < 35000 nM

Cn1c(COP(=O)(NCCBr)NCCBr)cnc1[N+](=O)[O-] [TH-302]
tumor growth inhibition (TGI) (786-0 cells [1]): did not demonstrate statistically significant efficacy; also recorded: did not demonstrate statistically significant TGI | tumor growth inhibition (TGI) (Caki-1 cells [2]; TH-302 50 mg/kg i.p. starting on day 1): 79% | tumor growth inhibition (TGI) (Caki-1 cells [2]; TH-302 50 mg/kg i.p. starting on day 8): 89% | tumor growth inhibition (TGI) (SK-N-BE(2) cells): 45% | tumor growth inhibition (TGI) (Caki-1 cells [3]): 57% | tumor hypoxic fraction [4]: 3.7±1.2% | tumor hypoxic fraction [5]: 4.3±0.7% | change of tumor hypoxia (in words) [5]: reduces the size of the hypoxic region

c1cncc(CN2CCC(n3ncc4c(N5CCOCC5)nc(-c5ccc6[nH]ccc6c5)nc43)CC2)c1 [WAY-600]
IC50 (mTOR): 9 nM

COC(=O)Nc1ccc(-c2nc(N3CCOCC3)c3cnn(C4CCN(C(=O)OC)CC4)c3n2)cc1 [WYE-354]
IC50 (mTOR): 5 nM

CNC(=O)Nc1ccc(-c2nc(N3CC4CCC(C3)O4)c3cnn(C4CCC5(CC4)OCCO5)c3n2)cc1 [WYE-125132]
IC50 (mTOR): 0.19 nM

CO[C@H]1C[C@@H]2CC[C@@H](C)[C@@](O)(O2)C(=O)C(=O)N2CCCC[C@H]2C(=O)O[C@H]([C@H](C)C[C@@H]2CC[C@@H](OCCO)[C@H](OC)C2)CC(=O)[C@H](C)/C=C(\C)[C@@H](O)[C@@H](OC)C(=O)[C@H](C)C[C@H](C)/C=C/C=C/C=C/1C [everolimus]
IC50 (mTOR): 0.6 nM | tumor growth inhibition (TGI) (786-0 cells [1]): 49% | tumor growth inhibition (TGI) (SK-N-BE(2) cells): 40% | tumor growth inhibition (TGI) (Caki-1 cells [3]): 52% | tumor hypoxic fraction [4]: 6.3±1.5% | change of tumor hypoxia (in words) ([4]; vs vehicle, combination vs mTOR inhibitor alone): increased hypoxia in the tumor; also recorded: significantly increases tumor hypoxia | cell proliferation (expression of nuclear antigen Ki67) (Ki67, CD31, p-S6): significantly decreased | microvessel density (angiogenic marker CD31) (Ki67, CD31, p-S6): significantly decreased | phosphorylation of the S6 ribosomal protein (p-S6) (Ki67, CD31, p-S6): significantly decreased

CO[C@H]1C[C@@H]2CC[C@@H](C)[C@@](O)(O2)C(=O)C(=O)N2CCCC[C@H]2C(=O)O[C@H]([C@H](C)C[C@@H]2CC[C@@H](OC(=O)C(C)(CO)CO)[C@H](OC)C2)CC(=O)[C@H](C)/C=C(\C)[C@@H](O)[C@@H](OC)C(=O)[C@H](C)C[C@H](C)/C=C/C=C/C=C/1C [temsirolimus]
tumor hypoxic fraction [5]: 12.8±0.7% | change of tumor hypoxia (in words) [5]: significant increase of tumor hypoxia; also recorded: significantly increases tumor hypoxia | tumor growth inhibition (TGI) (786-0 cells [6]): 113%
